Where a name gives a salt, the structure may show the parent alone. Read-outs that look alike come from different tables or passages of the source.
What was measured:
[1] = exposure to humidity, cited from earlier work
[2] = for Related Substances: Chlorothiamine (Impurity C) / Related Substances: Thiamine sulfate ester (Impurity A) / Related Substances: Desmethylthiamine (Impurity B) / Related Substances: Total Impurities: EP 8.6 HPLC Method; for Related Substances: Chlorothiamine (Impurity C) / Related Substances: Thiamine sulfate ester (Impurity A): limit NMT 0.15%; for Related Substances: Desmethylthiamine (Impurity B): limit NMT 0.3%; for Related Substances: Total Impurities: limit NMT 0.5%; for Assay: limit 98.0%-102.0%; for Sulfates: limit EP 8.6 NMT 300 ppm; for Solution S: limit EP 8.6 Practically Clear and Odorless; for Heavy Metals / Appearance: limit Meets EP 8.6; for ID: Chloride / ID: FTIR / Limit of Nitrate: limit Meets USP 39; for Absorbance of Solution: limit USP 39 NMT 0.025 Abs; for Residue on Ignition: limit USP 39 NMT 0.2%; for Water: limit USP 39 NMT 5.0%; for pH: limit USP 39 pH 2.7-3.4
[3] = cited from earlier work
[4] = 36 Months, listed as T111116, hydrochloride monohydrate
[5] = 36 Months, listed as T111201, hydrochloride monohydrate
[6] = 36 Months, listed as T111202, hydrochloride monohydrate
[7] = Time 0, listed as T111116, hydrochloride monohydrate
[8] = Time 0, listed as T111201, hydrochloride monohydrate
[9] = Time 0, listed as T111202, hydrochloride monohydrate

In the case of `Cc1ncc(C[n+]2csc(CCO)c2C)c(N)n1` [Example 1, Thiamine Hydrochloride Hemihydrate], the Hygroscopicity ([1]; Hydrochloride Hemihydrate) is given as “less hygroscopic”.

In the case of `Cc1ncc(C[n+]2csc(CCO)c2C)c(N)n1` [Thiamine hydrochloride monohydrate], the “Related Substances: Chlorothiamine (Impurity C)” value ([2]; 36 Months) is reported as <0.05%, the “Related Substances: Thiamine sulfate ester (Impurity A)” value (“Related Substances … (Impurity A)” below) ([2]; 36 Months) is reported as 0.07% and the “Related Substances: Desmethylthiamine (Impurity B)” value (from here on “Related Substances … (Impurity B)”) [2, 4] is reported as 0.07%. For the same molecule, the “Related Substances … (Impurity B)” value [2, 5] was 0.07%, the “Related Substances … (Impurity B)” value [2, 6] was 0.06% and the “Related Substances: Total Impurities” value [2, 4] was 0.13%. For the same molecule, the “Related Substances: Total Impurities” value [2, 5] was 0.14%, the “Related Substances: Total Impurities” value [2, 6] was 0.13% and the Assay [2, 4] was 99.8%. The Assay [2, 5] was 99.6%, the Assay [2, 6] was 99.1% and the Sulfates ([2]; 36 Months) was “Complies”. For the same molecule, the “Solution S” value ([2]; 36 Months) was “Complies”, the “Heavy Metals” value ([2]; 36 Months) was “Complies” and the Appearance ([2]; 36 Months, sealed foil lined polypropylene bags) was “Complies”. The “ID: Chloride” value ([2]; 36 Months) was “Complies”, the “ID: FTIR” value ([2]; 36 Months) was “Complies” and the “Limit of Nitrate” value ([2]; 36 Months) was “Complies”. The “Absorbance of Solution” value [2, 4] was 0.004 Abs, the “Absorbance of Solution” value [2, 5] was 0.013 Abs and the “Absorbance of Solution” value [2, 6] was 0.007 Abs. For the same molecule, the “Residue on Ignition” value ([2]; 36 Months) was 0.0%, the Water [2, 4] was 3.7% and the Water [2, 5] was 2.7%. The Water [2, 6] was 4.0%, the pH [2, 4] was “pH 2.9” and the pH [2, 5] was “pH 3.0”. The pH [2, 6] was “pH 3.1”, the “Related Substances: Chlorothiamine (Impurity C)” value ([2]; Time 0) was <0.05% and the “Related Substances … (Impurity A)” value [2, 7] was <0.05%. The “Related Substances … (Impurity A)” value [2, 8] was 0.07%, the “Related Substances … (Impurity A)” value [2, 9] was 0.06% and the “Related Substances … (Impurity B)” value [2, 7] was <0.05%. The “Related Substances … (Impurity B)” value [2, 8] was 0.07%, the “Related Substances … (Impurity B)” value [2, 9] was 0.06% and the “Related Substances: Total Impurities” value [2, 7] was “Complies”. The “Related Substances: Total Impurities” value [2, 8] was 0.4%, the “Related Substances: Total Impurities” value [2, 9] was 0.12% and the Assay [2, 7] was 99.0%. The Assay [2, 8] was 98.6%, the Assay [2, 9] was 99.2% and the Sulfates ([2]; Time 0) was “Complies”. The “Solution S” value ([2]; Time 0) was “Complies”, the Appearance ([2]; Time 0) was “Complies” and the “Heavy Metals” value ([2]; Time 0) was “Complies”. For the same molecule, the “ID: Chloride” value ([2]; Time 0) was “Complies”, the “ID: FTIR” value ([2]; Time 0) was “Complies” and the “Limit of Nitrate” value ([2]; Time 0) was “Complies”. For the same molecule, the “Absorbance of Solution” value [2, 7] was 0.005 Abs, the “Absorbance of Solution” value [2, 8] was 0.008 Abs and the “Absorbance of Solution” value ([2]; Time 0, unit printed as %) was 0.007%. The “Residue on Ignition” value ([2]; Time 0) was 0.0%, the Water [2, 7] was 3.2% and the Water [2, 8] was 2.0%. For the same molecule, the Water [2, 9] was 3.3%, the pH [2, 7] was “pH 3.3” and the pH [2, 8] was “pH 3.2”. For the same molecule, the pH [2, 9] was “pH 3.2”, the Storage stability ([2]; protected from moisture, […], USP or EP testing) was “stability up to three years” and the Hygroscopicity ([1]; hydrochloride monohydrate) was “hygroscopic”.

In the case of `Cc1ncc(C[n+]2csc(CCO)c2C)c(N)n1` [Thiamine hydrochloride], the Solubility in water [3] is given as “high solubility in water”.

In the case of `Cc1ncc(C[n+]2csc(CCO)c2C)c(N)n1` [anhydrous form, Thiamine hydrochloride], the Hygroscopicity ([1]; hydrochloride) is listed as “readily absorbs moisture to form the monohydrate and hemihydrate”.
